Paper PMC12137728, “The hydroxamate based HDAC inhibitor WMJ-J-09 induces colorectal cancer cell death by targeting tubulin and downregulating survivin” (Scientific Reports, 2025)

System: tubulin in HCT116 cells
Assay: Microtubule assembly / polymerized tubulin (immunofluorescence, western blot)
Format: cell-based, human
Details: HCT116 cell lysate
Protocol: Following the indicated treatments, a lysis buffer containing NP-40 (0.5%), Tris (10 mM) (pH 7.0), PMSF (2 mM), NaCl (140 mM), leupeptin (0.2 mM), and pepstatin A (0.05 mM) was utilized to lyse cells to extract proteins. SDS-PAGE was utilized to separate protein samples in equal quantities, then transferred to a nitrocellulose membrane (Pall Corporation, Washington, NY, U.S.A.). Following transfer and 1-h blocking by incubation with TBST buffer containing 5% non-fat, the proteins immobilized on the membranes undergo primary antibody hybridization. Secondary antibodies conjugated with horseradish peroxidase were used to detect target proteins. Immunoreactivity was detected using the Western chemiluminescent HRP substrate kit, as per the manufacturer’s recommendations. We used a densitometer integrated into a scientific imaging system (Biospectrum AC System, UVP) to obtain quantitative data. We examined tubulin assembly as previously described [8]. […] Subsequently, the cells were washed with PBS twice and fixed with 4% paraformaldehyde at room temperature for 15 min. Cells were permeabilized by incubation with PBS containing Triton X-100 (0.1%) for 30 min. […] The distribution of tubulin was analyzed using a confocal microscope (Zeiss, LSM 410). Green fluorescence represented β-tubulin, while blue fluorescence (derived from DAPI) corresponds to nuclei.

CC(=O)O[C@H]1C(=O)[C@@]2(C)[C@H]([C@H](OC(=O)c3ccccc3)[C@]3(O)C[C@H](OC(=O)[C@H](O)[C@@H](NC(=O)c4ccccc4)c4ccccc4)C(C)=C1C3(C)C)[C@]1(OC(C)=O)CO[C@@H]1C[C@@H]2O [Paclitaxel, paclitaxel]
polymerized tubulin fraction: increased the polymeric tubulin
